According to PMC2607046 (Journal of medicinal chemistry, 2008):

Key:
dopamine D2L receptor = dopamine D2L receptor (Rattus norvegicus, UniProt P61169); assay type: binding
dopamine D3 receptor = dopamine D3 receptor (Rattus norvegicus, UniProt P19020); assay type: binding
[1] = 35c (spacer length 4) relative to 35a (spacer length 2)

Sequence of dopamine D3 receptor (P19020 whole entry): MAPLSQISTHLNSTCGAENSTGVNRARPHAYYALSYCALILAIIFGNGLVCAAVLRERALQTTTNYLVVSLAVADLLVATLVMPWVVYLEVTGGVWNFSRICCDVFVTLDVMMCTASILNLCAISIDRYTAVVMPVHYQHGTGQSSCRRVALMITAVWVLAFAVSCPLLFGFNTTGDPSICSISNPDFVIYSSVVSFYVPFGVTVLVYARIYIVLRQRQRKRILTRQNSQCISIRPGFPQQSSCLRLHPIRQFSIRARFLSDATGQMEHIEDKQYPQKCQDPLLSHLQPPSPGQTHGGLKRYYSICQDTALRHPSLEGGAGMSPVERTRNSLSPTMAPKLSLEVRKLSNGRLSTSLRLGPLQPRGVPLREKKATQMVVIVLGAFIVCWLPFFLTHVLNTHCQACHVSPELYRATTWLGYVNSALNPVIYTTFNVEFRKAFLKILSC
Sequence of dopamine D2L receptor (P61169 whole entry): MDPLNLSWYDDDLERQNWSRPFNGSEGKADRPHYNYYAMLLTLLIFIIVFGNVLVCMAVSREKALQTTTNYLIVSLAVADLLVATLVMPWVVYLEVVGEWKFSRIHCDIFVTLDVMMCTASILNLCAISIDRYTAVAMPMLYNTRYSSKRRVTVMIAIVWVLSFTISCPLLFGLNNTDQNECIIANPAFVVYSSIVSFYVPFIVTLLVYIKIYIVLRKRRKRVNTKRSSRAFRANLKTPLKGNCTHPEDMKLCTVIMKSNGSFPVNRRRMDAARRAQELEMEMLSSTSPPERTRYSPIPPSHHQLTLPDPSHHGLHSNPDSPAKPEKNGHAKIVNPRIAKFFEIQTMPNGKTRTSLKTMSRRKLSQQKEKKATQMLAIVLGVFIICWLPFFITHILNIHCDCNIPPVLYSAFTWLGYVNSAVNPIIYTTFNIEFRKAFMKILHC

SMILES: CCCN(CCN1CCN(c2ccccc2)CC1)[C@H]1CCc2c(O)cccc2C1 [(−)-7]
- difference in inhibition constants between enantiomers, D2L receptor (dopamine D2L receptor; (−)-7 versus its enantiomer (+)-7): ~ 9 fold

SMILES: Oc1cccc2c1CC[C@H]1[C@H]2CCCN1CCN1CCN(c2ccccc2)CC1 (racemic) [(±)-8, (±)-trans-4-(2-(4-Phenylpiperazin-1-yl)ethyl)-1,2,3,4,4a,5,6,10b-octahydrobenzo[f]-quinolin-7-ol]
- Ki (dopamine D3 receptor): 14.9 ± 4.3 nM

SMILES: Oc1ccc2c(c1)C[C@H]1[C@@H](CCCN1CCCCN1CCN(c3ccccc3)CC1)C2 (racemic) [(±)-35c, (±)-trans-1-[4-(4-Phenylpiperazin-1-yl)butyl]-1,2,3,4,4a,5,10,10a-octahydrobenzo-[g]quinolin-8-ol]
- gain in affinity for D2 receptor (dopamine D2L receptor; [1]): ~ 9 fold
- gain in affinity for D3 receptor (dopamine D3 receptor; [1]): ~ 3 fold
